Toxic doses and inconclusive results are not listed. No stated cut-off is given here; in the data, active means T/C of 150% or more; inactive means T/C below 125%.
Test system: L1210 leukemia ip in BDF1 mice, survival T/C
Assay: NCI In Vivo Anticancer Drug Screen. Data for tumor model L1210 Leukemia (intraperitoneal) in B6D2F1 (BDF1) mice
Details: endpoint: mean survival time, higher = longer survival
Outline: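 Tumor was transplanted into mice, which were then dosed with test compound or vehicle alone. Survival was recorded for each group, and the treated figure was expressed relative to the control figure.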

[1] = dose: 50.0 mg/kg/injection, schedule: Q01DX009 (ip), vehicle: saline
[2] = dose: 100.0 mg/kg/injection, schedule: Q01DX009 (ip), vehicle: saline
[3] = dose: 200.0 mg/kg/injection, schedule: Q01DX009 (ip), vehicle: saline
[4] = dose: 400.0 mg/kg/injection, schedule: Q01DX009 (ip), vehicle: saline
[5] = dose: 100.0 mg/kg/injection, schedule: Q01DX001 (ip), vehicle: saline with Tween-80
[6] = dose: 200.0 mg/kg/injection, schedule: Q01DX001 (ip), vehicle: saline with Tween-80
[7] = dose: 400.0 mg/kg/injection, schedule: Q01DX001 (ip), vehicle: saline with Tween-80
[8] = dose: 100.0 mg/kg/injection, schedule: Q04DX003 (ip), vehicle: Klucel (hydroxypropylcellulose) (HPC)
[9] = dose: 200.0 mg/kg/injection, schedule: Q04DX003 (ip), vehicle: Klucel (hydroxypropylcellulose) (HPC)
[10] = dose: 400.0 mg/kg/injection, schedule: Q04DX003 (ip), vehicle: Klucel (hydroxypropylcellulose) (HPC)
[11] = dose: 100.0 mg/kg/injection, schedule: Q04DX003 (ip), vehicle: saline with Tween-80
[12] = dose: 200.0 mg/kg/injection, schedule: Q04DX003 (ip), vehicle: saline with Tween-80
[13] = dose: 200.0 mg/kg/injection, schedule: Q01DX009 (ip), vehicle: saline with Tween-80
[14] = dose: 400.0 mg/kg/injection, schedule: Q01DX009 (ip), vehicle: saline with Tween-80

Measured: T/C

C=C(Cl)C[N+]12CN3CN(CN(C3)C1)C2
inactive: dose: 12.5 mg/kg/injection, schedule: Q01DX009 (ip), vehicle: saline 108 % of control | dose: 12.5 mg/kg/injection, schedule: Q04DX003 (ip), vehicle: saline 102 % of control | dose: 25.0 mg/kg/injection, schedule: Q01DX009 (ip), vehicle: saline 101 % of control | dose: 25.0 mg/kg/injection, schedule: Q04DX003 (ip), vehicle: saline 104 % of control | [1] 111 % of control | dose: 50.0 mg/kg/injection, schedule: Q04DX003 (ip), vehicle: saline 102 % of control

CCCCCSC
inactive: [2] 93 % of control | dose: 100.0 mg/kg/injection, schedule: Q04DX003 (ip), vehicle: saline 102 % of control | [3] 95 % of control | dose: 200.0 mg/kg/injection, schedule: Q04DX003 (ip), vehicle: saline 105 % of control | [4] 88 % of control | dose: 400.0 mg/kg/injection, schedule: Q04DX003 (ip), vehicle: saline 100 % of control

COCCNP(=O)(OC(C)C)OC(C)C
inactive: [2] 97 % of control | [3] 92 % of control | [4] 94 % of control

Cc1cccc2c1N=C(C(F)(F)F)CC2=O
inactive: dose: 75.0 mg/kg/injection, schedule: Q01DX001 (ip), vehicle: other 100 % of control | dose: 150.0 mg/kg/injection, schedule: Q01DX001 (ip), vehicle: other 96 % of control | dose: 300.0 mg/kg/injection, schedule: Q01DX001 (ip), vehicle: other 97 % of control

O=C1C=Cc2c(ccc3c4c(ccc23)=CC(=O)C=C4)=C1
inactive: [5] 88 % of control | [6] 90 % of control | [7] 90 % of control

CC(=O)N(C)C1=C(Sc2ccc(C)cc2)C(=O)c2ccccc2C1=O
inactive: dose: 150.0 mg/kg/injection, schedule: Q01DX001 (ip), vehicle: carboxymethylcellulose (CMC) 93 % of control

CCN(Cc1cc(OC)c(OC)c(OC)c1)C1CCCCC1
inactive: [1] 113 % of control | [2] 98 % of control

COc1ccc(OC)c(C(=O)CCCCC(=O)O)c1
inactive: [8] 95 % of control | [9] 93 % of control | [10] 104 % of control

Nc1ccc(C2=NCCO2)cc1
inactive: dose: 100.0 mg/kg/injection, schedule: Q01DX001 (ip), vehicle: Klucel (hydroxypropylcellulose) (HPC) 92 % of control | dose: 200.0 mg/kg/injection, schedule: Q01DX001 (ip), vehicle: Klucel (hydroxypropylcellulose) (HPC) 103 % of control | dose: 400.0 mg/kg/injection, schedule: Q01DX001 (ip), vehicle: Klucel (hydroxypropylcellulose) (HPC) 96 % of control

O=C(CCCc1ccc(N(CCCl)CCCl)cc1)NCc1ccccc1
inactive: dose: 4.0 mg/kg/injection, schedule: Q12HX018 (ip), vehicle: other 112 % of control | dose: 6.0 mg/kg/injection, schedule: Q12HX018 (ip), vehicle: other 103 % of control | dose: 8.0 mg/kg/injection, schedule: Q12HX018 (ip), vehicle: other 108 % of control

C=C1C(=O)OC2CCCC/C=C\C12 (centres undefined)
inactive: [1] 95 % of control | [2] 98 % of control | [3] 95 % of control

O=[N+]([O-])c1ccc(OCCO)c([N+](=O)[O-])c1
inactive: dose: 50.0 mg/kg/injection, schedule: Q04DX003 (ip), vehicle: saline with Tween-80 104 % of control | [11] 104 % of control | [12] 103 % of control

CCOC(=O)C1=C(C)C(C)C(=O)NC1=O (centres undefined)
inactive: [5] 100 % of control | [6] 101 % of control | [13] 110 % of control | [7] 96 % of control | [14] 96 % of control

C=C1C(=O)OC2CCCCC3OC3C12 (centres undefined)
inactive: [5] 102 % of control

COc1cc(C=O)cc(C=O)c1O
inactive: dose: 25.0 mg/kg/injection, schedule: Q01DX001 (ip), vehicle: saline with Tween-80 96 % of control | dose: 50.0 mg/kg/injection, schedule: Q01DX001 (ip), vehicle: saline with Tween-80 104 % of control | [5] 90 % of control

CN(C)c1ccc(SCC(=O)c2ccccc2)cc1
inactive: [11] 93 % of control | [12] 101 % of control | dose: 400.0 mg/kg/injection, schedule: Q04DX003 (ip), vehicle: saline with Tween-80 95 % of control

CC[C@@]1(O)C(=O)OCc2c1cc1n(c2=O)Cc2cc3ccccc3[n+]([O-])c2-1
inactive: dose: 1.0 mg/kg/injection, schedule: Q01DX015 (ip), vehicle: saline 112 % of control | dose: 8.0 mg/kg/injection, schedule: Q01DX015 (ip), vehicle: saline 86 % of control | dose: 12.5 mg/kg/injection, schedule: Q01DX001 (ip), vehicle: saline 115 % of control

COc1cccc(N2C(=O)C=CC2=O)c1
inactive: dose: 1.56 mg/kg/injection, schedule: Q01DX009 (ip), vehicle: Klucel (hydroxypropylcellulose) (HPC) 97 % of control | dose: 3.12 mg/kg/injection, schedule: Q01DX009 (ip), vehicle: Klucel (hydroxypropylcellulose) (HPC) 97 % of control

CCC(C)C(CCCCN(C)C)(CNC(=O)CN(CC)CC)c1cccc2ccccc12 (centres undefined)
inactive: [2] 99 % of control

CC(C)=C1C2CCC1C(CO)C2CO (centres undefined)
inactive: dose: 100.0 mg/kg/injection, schedule: Q01DX009 (ip), vehicle: Klucel (hydroxypropylcellulose) (HPC) 95 % of control | [8] 102 % of control | dose: 200.0 mg/kg/injection, schedule: Q01DX009 (ip), vehicle: Klucel (hydroxypropylcellulose) (HPC) 102 % of control | [9] 100 % of control | dose: 400.0 mg/kg/injection, schedule: Q01DX009 (ip), vehicle: Klucel (hydroxypropylcellulose) (HPC) 104 % of control | [10] 96 % of control

CC(=O)Nc1ccc(/C=N\NC(=O)c2ccco2)cc1
inactive: dose: 100.0 mg/kg/injection, schedule: Q01DX001 (ip), vehicle: other 87 % of control | dose: 200.0 mg/kg/injection, schedule: Q01DX001 (ip), vehicle: other 90 % of control | dose: 400.0 mg/kg/injection, schedule: Q01DX001 (ip), vehicle: other 87 % of control

CCOC(=O)C(NC=O)(C(=O)OCC)C(C)c1c[nH]c2ccccc12 (centres undefined)
inactive: [5] 93 % of control | dose: 100.0 mg/kg/injection, schedule: Q01DX009 (ip), vehicle: saline with Tween-80 102 % of control | [6] 94 % of control | [13] 98 % of control | [7] 100 % of control | [14] 94 % of control

CCCCP(=S)(CCCC)N(CC)CC
inactive: [8] 101 % of control | [9] 104 % of control | [10] 93 % of control

CC(=O)OC1=CC(=O)c2ccccc2C1=O
inactive: dose: 5.0 mg/kg/injection, schedule: Q01DX001 (ip), vehicle: carboxymethylcellulose (CMC) 101 % of control | dose: 10.0 mg/kg/injection, schedule: Q01DX001 (ip), vehicle: carboxymethylcellulose (CMC) 101 % of control | dose: 20.0 mg/kg/injection, schedule: Q01DX001 (ip), vehicle: carboxymethylcellulose (CMC) 101 % of control | dose: 40.0 mg/kg/injection, schedule: Q01DX001 (ip), vehicle: carboxymethylcellulose (CMC) 107 % of control | dose: 80.0 mg/kg/injection, schedule: Q01DX001 (ip), vehicle: carboxymethylcellulose (CMC) 107 % of control | dose: 100.0 mg/kg/injection, schedule: Q01DX001 (ip), vehicle: carboxymethylcellulose (CMC) 104 % of control

O=C(COc1cc(Cl)c(Cl)cc1Cl)OCCOc1cc(Cl)c(Cl)cc1Cl
inactive: dose: 7.5 mg/kg/injection, schedule: Q01DX001 (ip), vehicle: saline 97 % of control | dose: 15.0 mg/kg/injection, schedule: Q01DX001 (ip), vehicle: saline 95 % of control | dose: 30.0 mg/kg/injection, schedule: Q01DX001 (ip), vehicle: saline 93 % of control
